# Calls of active or inactive are those of the source. No cut-off for these calls is given here.
# Experiments:
# [1] = biological target: T1, 3',5'-cyclic-AMP phosphodiesterase 4D (Homo sapiens, UniProt Q08499); experiment: Inhibition of PDE4D (unknown origin) at 1 uM relative to control
# [2] = tested on: RAW264.7; experiment: Cytotoxicity against mouse RAW264.7 cells at 10 uM measured after 24 hrs by CCK-8 method; format: functional, cell-based
# [3] = biological target: T1, 3',5'-cyclic-AMP phosphodiesterase 4D; experiment: Inhibition of PDE4D (unknown origin)
# [4] = tested on: Rattus norvegicus; experiment: Antiinflammatory activity against male Sprague-Dawley rat pressure ulcer model assessed as wound healing rate administration as ointment measured after 7 days (reference value: 70%); format: functional; conditions: time 7 day
# [5] = tested on: Rattus norvegicus; experiment: Antiinflammatory activity against male Sprague-Dawley rat pressure ulcer model assessed as reduction in IL6 mRNA expression in skin administered as ointment by qRT-PCR analysis; format: functional, organism-based
# [6] = tested on: Rattus norvegicus; experiment: Antiinflammatory activity against male Sprague-Dawley rat pressure ulcer model assessed as reduction in TNF-alpha mRNA expression in skin administered as ointment by qRT-PCR analysis; format: functional, organism-based
# [7] = tested on: Rattus norvegicus; experiment: Antiinflammatory activity against male Sprague-Dawley rat pressure ulcer model assessed as appearance of thinner epidermal layer administered as ointment by H and E staining based analysis; format: functional, organism-based
# [8] = tested on: Rattus norvegicus; experiment: Antiinflammatory activity against male Sprague-Dawley rat pressure ulcer model assessed as decrease in inflammatory cells in dermis administered as ointment by H and E staining based analysis; format: functional, organism-based
# [9] = tested on: Rattus norvegicus; experiment: Antiinflammatory activity against male Sprague-Dawley rat pressure ulcer model assessed as increase in number of fibroblasts administered as ointment by H and E staining based analysis; format: functional, organism-based
# [10] = tested on: Rattus norvegicus; experiment: Antiinflammatory activity against male Sprague-Dawley rat pressure ulcer model assessed as appearance of orderly arranged cells administered as ointment by H and E staining based analysis; format: functional, organism-based
# [11] = tested on: Rattus norvegicus; experiment: Antiinflammatory activity against male Sprague-Dawley rat pressure ulcer model assessed as appearance of orderly arranged cells administered as ointment by Masson staining based analysis; format: functional, organism-based
# [12] = tested on: Rattus norvegicus; experiment: Antiinflammatory activity against male Sprague-Dawley rat pressure ulcer model assessed as increase in number of fibroblasts administered as ointment by Masson staining based analysis; format: functional, organism-based
# [13] = tested on: Rattus norvegicus; experiment: Antiinflammatory activity against male Sprague-Dawley rat pressure ulcer model assessed as decrease in inflammatory cells in dermis administered as ointment by Masson staining based analysis; format: functional, organism-based
# [14] = tested on: Rattus norvegicus; experiment: Antiinflammatory activity against male Sprague-Dawley rat pressure ulcer model assessed as appearance of thinner epidermal layer administered as ointment by Masson staining based analysis; format: functional, organism-based
# [15] = tested on: Enterococcus faecalis; experiment: Antibacterial activity against Enterococcus faecalis BNCC296862 assessed as reduction in bacterial colonies growth at 512 ug/ml measured after 24 hrs by agar plate method; format: functional, organism-based; conditions: dose 512.0 µg/ml
# [16] = tested on: Enterococcus faecium; experiment: Antibacterial activity against Enterococcus faecium BNCC358275 assessed as reduction in bacterial colonies growth at 512 ug/ml measured after 24 hrs by agar plate method; format: functional, organism-based; conditions: dose 512.0 µg/ml
# [17] = tested on: RAW264.7; experiment: Cytotoxicity against mouse RAW264.7 cells measured after 24 hrs by CCK-8 method; format: functional
# [18] = tested on: RAW264.7; experiment: Antiinflammatory activity against mouse RAW264.7 cells assessed as inhibition of LPS-induced TNF-alpha release preincubated for 2 hrs followed by LPS stimulation and measured after 4 hrs by RT-PCR analysis; format: functional, cell-based
# [19] = tested on: RAW264.7; experiment: Antiinflammatory activity against mouse RAW264.7 cells assessed as inhibition of LPS-induced NO release preincubated for 2 hrs followed by LPS stimulation and measured after 4 hrs by RT-PCR analysis; format: functional, cell-based
# T1 sequence (Q08499 whole entry): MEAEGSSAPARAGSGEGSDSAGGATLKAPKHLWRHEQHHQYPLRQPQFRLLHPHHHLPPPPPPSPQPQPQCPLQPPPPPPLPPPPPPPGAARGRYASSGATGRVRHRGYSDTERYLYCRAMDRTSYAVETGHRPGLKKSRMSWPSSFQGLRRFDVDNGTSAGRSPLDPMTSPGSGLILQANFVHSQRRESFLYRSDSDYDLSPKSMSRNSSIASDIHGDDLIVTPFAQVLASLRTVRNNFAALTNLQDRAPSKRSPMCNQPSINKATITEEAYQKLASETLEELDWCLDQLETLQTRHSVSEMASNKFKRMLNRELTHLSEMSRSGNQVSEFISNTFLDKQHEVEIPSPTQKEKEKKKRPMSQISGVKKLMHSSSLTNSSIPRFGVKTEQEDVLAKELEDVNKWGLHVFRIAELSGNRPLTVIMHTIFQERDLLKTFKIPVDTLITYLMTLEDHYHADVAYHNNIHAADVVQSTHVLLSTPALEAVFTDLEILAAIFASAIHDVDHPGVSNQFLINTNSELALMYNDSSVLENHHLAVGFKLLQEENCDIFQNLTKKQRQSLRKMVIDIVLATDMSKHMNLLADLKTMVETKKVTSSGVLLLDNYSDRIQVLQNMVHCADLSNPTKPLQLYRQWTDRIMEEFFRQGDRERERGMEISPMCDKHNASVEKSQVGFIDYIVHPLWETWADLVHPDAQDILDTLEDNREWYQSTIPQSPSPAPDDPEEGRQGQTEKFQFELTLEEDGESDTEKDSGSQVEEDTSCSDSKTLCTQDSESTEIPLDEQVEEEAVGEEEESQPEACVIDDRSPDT
Compound,inhibition [1] [%],Activity [2],other results
Cn1c(=O)c2c(nc(NCc3ccccc3)n2CCCC(=O)NNC(=O)c2cc3nccc(-c4ccc(OC(F)F)c(OCC5CC5)c4)n3n2)n(C)c1=O,43,inactive,
Cn1c(=O)c2c(ncn2CCC(=O)NNC(=O)c2cccc3[nH]c(-c4ccc(OC(F)F)c(OC(F)F)c4)nc23)n(C)c1=O,92.6,inactive,IC50 [3]: 29 nM
Cn1c(=O)c2c(ncn2CCC(=O)NNC(=O)c2csc(-c3ccc(OC(F)F)c(OCC4CC4)c3)n2)n(C)c1=O,87.5,inactive,
Cn1c(=O)c2c(ncn2CCCC(=O)NNC(=O)c2csc(-c3ccc(OC(F)F)c(OCC4CC4)c3)n2)n(C)c1=O,98.4,inactive,
Cn1c(=O)c2c(nc(NCc3ccccc3)n2CCCC(=O)NNC(=O)c2csc(-c3ccc(OC(F)F)c(OCC4CC4)c3)n2)n(C)c1=O,89.9,inactive,
Cn1c(=O)c2c(nc(Br)n2CCCC(=O)NNC(=O)c2cccc3[nH]c(-c4ccc(OC(F)F)c(OC(F)F)c4)nc23)n(C)c1=O,96.8,inactive,
Cn1c(=O)c2c(nc(NCc3ccccc3)n2CCCC(=O)NNC(=O)c2cccc3[nH]c(-c4ccc(OC(F)F)c(OC(F)F)c4)nc23)n(C)c1=O,92.4,inactive,
Cn1c(=O)c2c(nc(Br)n2CCCC(=O)NNC(=O)c2cc3nccc(-c4ccc(OC(F)F)c(OCC5CC5)c4)n3n2)n(C)c1=O,94.7,inactive,IC50 [3]: 276 nM
Cn1c(=O)c2c(nc(Br)n2CCCC(=O)NNC(=O)c2csc(-c3ccc(OC(F)F)c(OCC4CC4)c3)n2)n(C)c1=O,97.2,inactive,
Cn1c(=O)c2c(ncn2CCC(=O)NNC(=O)c2c[nH]c(-c3ccc(OC(F)F)c(OCC4CC4)c3)n2)n(C)c1=O,96.4,inactive,
Cn1c(=O)c2c(nc(Br)n2CCCC(=O)NNC(=O)c2coc(-c3ccc(OC(F)F)c(OCC4CC4)c3)n2)n(C)c1=O,85.3,inactive,
O=C(Nc1c(Cl)cncc1Cl)c1ccc(OC(F)F)c(OCC2CC2)c1 [ROFLUMILAST],,,Activity [4]: 81%; Activity [5]: Active; Activity [6]: Active; Activity [7]: Active; Activity [8]: Active; Activity [9]: Active; Activity [10]: Active; Activity [11]: Active; Activity [12]: Active; Activity [13]: Active; Activity [14]: Active
Cn1c(=O)c2c(nc(Br)n2CCCC(=O)NNC(=O)c2cccc3[nH]c(-c4ccc(OC(F)F)c(OCC5CC5)c4)nc23)n(C)c1=O,99.2,inactive,
Cn1c(=O)c2c(ncn2CCC(=O)NNC(=O)c2coc(-c3ccc(OC(F)F)c(OCC4CC4)c3)n2)n(C)c1=O,63,inactive,
Cn1c(=O)c2c(ncn2CCCC(=O)NNC(=O)c2cccc3[nH]c(-c4ccc(OC(F)F)c(OCC5CC5)c4)nc23)n(C)c1=O,96.8,inactive,
Cn1c(=O)c2c(nc(NCc3ccccc3)n2CCCC(=O)NNC(=O)c2cccc3[nH]c(-c4ccc(OC(F)F)c(OCC5CC5)c4)nc23)n(C)c1=O,85.7,inactive,
Cn1c(=O)c2c(ncn2CCCC(=O)NNC(=O)c2cnn3c(-c4ccc(OC(F)F)c(OCC5CC5)c4)ccnc23)n(C)c1=O,85.7,inactive,
Cn1c(=O)c2c(ncn2CCC(=O)NNC(=O)c2cccc3[nH]c(-c4ccc(OC(F)F)c(OCC5CC5)c4)nc23)n(C)c1=O,96.9,inactive,
Cn1c(=O)c2c(ncn2CCCC(=O)NNC(=O)c2cc3nccc(-c4ccc(OC(F)F)c(OCC5CC5)c4)n3n2)n(C)c1=O,95.6,inactive,
CN[C@H](CC(C)C)C(=O)N[C@H]1C(=O)N[C@@H](CC(N)=O)C(=O)N[C@H]2C(=O)N[C@H]3C(=O)N[C@H](C(=O)N[C@H](C(=O)O)c4cc(O)cc(O)c4-c4cc3ccc4O)[C@H](O)c3ccc(c(Cl)c3)Oc3cc2cc(c3O[C@@H]2O[C@H](CO)[C@@H](O)[C@H](O)[C@H]2O[C@H]2C[C@](C)(N)[C@H](O)[C@H](C)O2)Oc2ccc(cc2Cl)[C@H]1O,,,Activity [15]: Active; Activity [16]: Active
COc1ccc(C2CNC(=O)C2)cc1OC1CCCC1 (stereo not given) [ROLIPRAM],,,CC50 [17]: > 60000 nM; IC50 [18]: 39900 nM; IC50 [19]: > 60000 nM
Cn1c(=O)c2c(ncn2CCCC(=O)NNC(=O)c2cccc3[nH]c(-c4ccc(OC(F)F)c(OC(F)F)c4)nc23)n(C)c1=O,97.9,inactive,IC50 [3]: 41 nM; CC50 [17]: 76800 nM; IC50 [18]: > 60000 nM; IC50 [19]: 2180 nM
Cn1c(=O)c2c(nc(NCc3ccccc3)n2CCCC(=O)NNC(=O)c2cnn3c(-c4ccc(OC(F)F)c(OCC5CC5)c4)ccnc23)n(C)c1=O,30.3,inactive,
Cn1c(=O)c2c(ncn2CCC(=O)NNC(=O)c2cnn3c(-c4ccc(OC(F)F)c(OCC5CC5)c4)ccnc23)n(C)c1=O,38.8,inactive,
Cn1c(=O)c2c(nc(NCc3ccccc3)n2CCCC(=O)NNC(=O)c2coc(-c3ccc(OC(F)F)c(OCC4CC4)c3)n2)n(C)c1=O,85.5,inactive,
Cn1c(=O)c2c(ncn2CCC(=O)NNC(=O)c2c[nH]c(-c3ccc(OC(F)F)c(OC(F)F)c3)n2)n(C)c1=O,82.1,inactive,
Cn1c(=O)c2c(ncn2CCCC(=O)NNC(=O)c2coc(-c3ccc(OC(F)F)c(OCC4CC4)c3)n2)n(C)c1=O,92.4,inactive,

# Reference: ChEMBL document CHEMBL6178016, “Design, Synthesis, and Biological Evaluation of New PDE4 Inhibitors for the Treatment of Pressure Ulcers” (J Med Chem, 2025)
